Holding throughout (assay type): in vivo
Test [1] relates to stereotype behaviour induced by apomorphine (dopamine receptor blockade in the central nervous system). Nature of the test: Inhibition of stereotype behaviour induced by apomorphine. The conditions noted are these: rat; for Inhibition of Stereotype Behaviour, active dose: s.c., apomorphine induced, active doses (mg/kg). The procedure: (§1) 1. Compounds prepared in the Examples were tested for the following pharmacological activities in the rat:
(c) Inhibition of stereotype behaviour induced by apomorphine
This is indicative of dopamine receptor blockade in the central nervous system.

Test [2] has as its system intragastric pressure. Nature of the test: Increase in intragastric pressure in the rat. To be noted: s.c., active doses (mg/kg). The method, then: as §1
(a) Increase in intragastric pressure
Intragastric pressure changes were recorded from previously starved conscious but restrained rats using a saline filled catheter inserted into the lumen of the stomach via a permanent gastric fistula. The catheter was connected to a physiological pressure transducer and pressure changes recorded on a hot wire pen recorder. In each animal a pre dose period of 40 minutes was allowed to obtain a measure of spontaneous activity. An index of activity was obtained by measuring the average height of pressure waves during 10 minute periods. Values for 4 such periods were obtained during assessment of spontaneous activity and for the 40 minute period after the subcutaneous administration of the Compounds. Student "t" test was applied to the difference in average values obtained for spontaneous and post Compound activity.

For test [3], the system named is emetic response to apomorphine. Nature of the test: Anti-emetic activity in the dog (abolition of emetic response to apomorphine). The conditions noted are these: for ED50: Canis lupus familiaris, sc, apomorphine emesis. The method, then:
2. Anti- emetic activity in the dog
(a) Compounds were tested in the dog for their ability to abolish the emetic response to apomorphine.

The subject of test [4] is apomorphine induced delay in gastric emptying. The experiment in a line: Increase in gastric emptying - reversal of apomorphine induced delay in gastric emptying of a test meal. To be noted: rat, s.c., apomorphine HCl 5 mg/kg s.c., active doses (mg/kg); for Increase in Gastric Emptying, active dose (slightly active): slightly active at this dose. The method, then:
as §1
(b) Increase in gastric emptying-reversal of apomorphine induced delay in gastric emptying of a test meal.
Rats equipped with chronic gastric fistual were used and it was through this that 5 ml of a test meal (5 ml phosphate buffer at pH 9) was administered and recovered. The % recovery of the standard meal after remaining in the stomach for 10 minutes was taken as an index of gastric emptying. Delay in gastric emptying was induced by the administration of Apomorphine HCl (5 mg/kg subcutaneously) and was given 15 minutes prior to the subcutaneous administration of the Compound. The % recoveries of the test meal was determined at 15-25 and 45-55 minutes post dosing with the Compound and compared with vehicle only dosed animals set up simultaneously. Six animals were used for each group.

Test [5] deals with intragastric pressure. Nature of the test: Increase in intragastric pressure in the rat. To be noted: p.o., active doses (mg/kg).
Test [6] concerns catapresan induced fighting behaviour. Nature of the test: Catapresan Test (catapresan induced fighting behaviour). To be noted: Mus musculus, po; mice, orally; catapresan 20-25 mg/kg intravenously; read-out: ED50, inhibition of catapresan induced fighting behaviour. The procedure: Catapresan (20-25 mg/kg intravenously) was used to induce fighting behaviour in mice. The fighting was assessed as the biting of a dead mouse placed in the cage and was given a score of 1 or 2 depending on intensity. Compound effect was measured as percentage inhibition of fighting compared to that with control animals and the dose reducing fighting by 50% was determined graphically.

Test [7] relates to amphetamine induced stereotypy. Nature of the test: Antagonism of Amphetamine Stereotypy. To be noted: rats, 10 mg/kg subcutaneously; d-amphetamine 10 mg/kg s.c. The procedure: Antagonism of Amphetamine Stereotypy
Based on method of Jansen, Niemegeers and Schellekens (1966), Arzneimittel Forsch., 15, pp. 104-117. Rats were given compound 15 minutes prior to subcutaneous injection of d-amphetamine (10 mg/kg). 30 minutes and 1 hour after the amphetamine, the degree of stereotyped behaviour was scored according to the method of Costal, Naylor and Olley (1972). Europ. J. Pharmacol., 18, pp. 83-94. The percentage inhibition of stereotypy at the respective time interval was calculated.

Regarding `COc1cc(N)c(Br)cc1C(=O)NN1CCN(C)CC1` [Example 21, 4-Amino-5-bromo-2-methoxy-N-[4-methyl-1-piperazinyl]-benzamide hemihydrate], the “Inhibition of Stereotype Behaviour” value in test [1] (at 50 mg s.c.) is recorded as “Inactive”. Besides, the “Increase in Intra-gastric Pressure, active dose” value in the test on intragastric pressure [2] was determined as 5 mg/kg.
On to `COc1cc(N)c(Cl)cc1C(=O)NN1CCN(Cc2cccs2)CC1` [Example 11, 4-Amino-5-chloro-2-methoxy-N-[4-(2-thenyl)-1-piperazinyl]-benzamide], for which, in test [1] (at 50 mg s.c.), the “Inhibition of Stereotype Behaviour” value is reported as “Inactive”. Also, in the test with intragastric pressure [2] (slightly active at this dose), the “Increase in Intra-gastric Pressure, active dose (slightly active)” value stood at 50 mg.
On to `COc1ccc(CN2CCN(NC(=O)c3cc(Cl)c(N)cc3OC)CC2)cc1` [Example 8, 4-Amino-5-chloro-2-methoxy-N-[4-(4-methoxybenzyl)-1-piperazinyl]benzamide], for which the “Inhibition of Stereotype Behaviour, active dose” value (“Inhibition … active dose” below) in test [1] is 3 mg.
Consider `CCCCN1CCCN(NC(=O)c2cc(Cl)c(N)cc2OC)CC1` [Example 22, 4-Amino-5-chloro-2-methoxy-N-[4-n-butyl-1-(1-4-diazocycloheptyl)]benzamide], for which, in test [3] (at 5 mg/kg subcutaneously), the “Inhibition of apomorphine induced emesis” value is on record as “completely inhibited”.
Consider `COc1cc(N)c(Cl)cc1C(=O)NN1CCN(C(C)C)CC1` [Example 16, 4-amino-5-chloro-2-methoxy-N-[4-(2-propyl)-1-piperazinyl]-benzamide], for which the “Inhibition of Stereotype Behaviour” value in test [1] (at 50 mg s.c.) is on record as “Inactive”. Moreover, the “Increase in Intra-gastric Pressure, active dose” value in the test with intragastric pressure [2] was determined as 5 mg/kg.
With `CCCN1CCN(NC(=O)c2cc(Cl)c(N)cc2OC)CC1` [Example 15, 4-amino-5-chloro-2-methoxy-N-[4-(1-propyl)-1-piperazinyl]-benzamide], the “Increase in Gastric Emptying, active dose (slightly active)” value in test [4] is recorded as 50 mg. In test [1] (at 50 mg s.c.), the “Inhibition of Stereotype Behaviour” value is “Inactive”. Further, the “Increase in Intra-gastric Pressure, active dose” value in the test on intragastric pressure [2] was 10 mg/kg.
Usually ED50 stands for the midpoint of the dose-response relation. For `CCCCN1CCN(NC(=O)c2cc(Cl)c(N)cc2OC)CC1` [Example 6, 4-Amino-5-chloro-2-methoxy-N-[4-n-butyl-1-piperazinyl]benzamide], the ED50 in test [3] is 1 mg/kg. The “Inhibition of Stereotype Behaviour” value in test [1] (at 25 mg s.c.) is listed as “Inactive”. Besides, the “Increase in Intra-gastric Pressure, active dose” value in the test on intragastric pressure [2] is reported as 5 mg/kg.
Take `COc1cc(N)c(Cl)cc1C(=O)NN1CCN(C)CC1` [Example 2, 4-Amino-5-chloro-2-methoxy-N-[4-methyl-1-piperazinyl]benzamide]: the “Increase in Intra-gastric Pressure, active dose” value in the test with intragastric pressure [5] is recorded as 20 mg/kg; in the test with intragastric pressure [2] it was 1 mg/kg. Also, in test [3], the ED50 turned out to be 8 mg/kg. Besides, in test [1] (at 100 mg s.c.), the “Inhibition of Stereotype Behaviour” value is “Inactive”.
In test [3], `COc1cc(N)c(Cl)cc1C(=O)NN1CCN(CCC(C)C)CC1` [Example 20, 4-Amino-5-chloro-2-methoxy-N-[4-(3-methylbutyl)-1-piperazinyl]-benzamide] yielded an ED50 of 0.35 mg/kg.
Consider `CCN1CCN(NC(=O)c2cc(Cl)c(N)cc2OC)CC1` [Example 5, 4-Amino-5-chloro-2-methoxy-N-[4-ethyl-1-piperazinyl]benzamide], for which the “Inhibition of Stereotype Behaviour” value in test [1] (at 50 mg s.c.) is reported as “Inactive”. For the same compound, the “Increase in Intra-gastric Pressure, active dose” value with intragastric pressure [2] is on record as 50 mg/kg.
`COc1cc(N)c(Cl)cc1C(=O)NN1CCN(Cc2ccccc2)CC1` [Example 1, 4-Amino-5-chloro-2-methoxy-N-[4-benzyl-1-piperazinyl]benzamide] came in with a 50% effective dose (ED50) in test [3] of 0.0125 mg/kg. Besides, the “Inhibition … active dose” value in test [1] was 0.625 mg.
With `COc1cc(N)c(Cl)cc1C(=O)NN1CCN(Cc2ccc(N(C)C)cc2)CC1` [Example 23, 4-Amino-5-chloro-2-methoxy-N-[4-(4-dimethylaminobenzyl)-1-piperazinyl]benzamide], the ED50 in test [6] was 60 mg/kg. Besides, the “Inhibition of amphetamine induced stereotypy” value in test [7] is 25%.
Regarding `COc1cc(N)c(Cl)cc1C(=O)NN1CC[N+](C)(Cc2ccccc2)CC1.[Br-]` [Example 18, 4-Amino-5-chloro-2-methoxy-N-[4-methyl-1-piperazinyl]-benzamide benzobromide], in test [4], the “Increase in Gastric Emptying, active dose” value is listed as 25 mg. In test [1] (at 50 mg s.c.), the “Inhibition of Stereotype Behaviour” value is on record as “Inactive”. Moreover, in the test on intragastric pressure [2], the “Increase in Intra-gastric Pressure, active dose” value stood at 25 mg/kg.
Regarding `CCCC[N+]1(C)CCN(NC(=O)c2cc(Cl)c(N)cc2OC)CC1.[Br-]` [Example 19, 4-Amino-5-chloro-2-methoxy-N-[4-n-butyl-1-piperazinyl]-benzamide methobromide], the “Increase in Gastric Emptying, active dose (slightly active)” value in test [4] was 50 mg. Besides, in test [1] (at 50 mg s.c.), the “Inhibition of Stereotype Behaviour” value is recorded as “Inactive”. Moreover, the “Increase in Intra-gastric Pressure, active dose” value in the test on intragastric pressure [2] is reported as 1 mg/kg.
For `COc1cc(N)c(Cl)cc1C(=O)NN1CC[N+](C)(C)CC1.[Br-]` [Example 17, 4-Amino-5-chloro-2-methoxy-N-[4-methyl-1-piperazinyl]-benzamide methobromide], the “Inhibition of Stereotype Behaviour” value in test [1] (at 50 mg s.c.) was “Inactive”. In addition, the “Increase in Intra-gastric Pressure, active dose” value with intragastric pressure [2] was 0.5 mg/kg.
For `COc1cc(N)c(Cl)cc1C(=O)NN1CCN(Cc2ccc(F)cc2)CC1` [Example 14, 4-amino-5-chloro-2-methoxy-N-[4-(4-fluorobenzyl)-1-piperazinyl]-benzamide], in test [1], the “Inhibition … active dose” value was determined as 50 mg.
Consider `CCCCCN1CCN(NC(=O)c2cc(Cl)c(N)cc2OC)CC1` [Example 13, 4-amino-5-chloro-2-methoxy-N-[4-(1-pentyl)-1-piperazinyl]-benzamide], for which the 50% effect level in test [3] (ED50) was put at a dose of 0.36 mg/kg. In addition, the “Inhibition … active dose” value in test [1] is given as 50 mg.
Consider `COc1cc(N)c(Cl)cc1C(=O)NN1CCCN(C)CC1` [Example 9, 4-Amino-5-chloro-2-methoxy-N-[4-methyl-1-(1,4-diazacycloheptyl)]benzamide], for which the Anti-emetic activity entry in test [3] (at 2 mg/kg s.c., inhibition of no. of vomits only) is reported as “slight activity”. Moreover, in test [1] (at 25 mg s.c.), the “Inhibition of Stereotype Behaviour” value is recorded as “Inactive”. In addition, the “Increase in Intra-gastric Pressure, active dose” value in the test on intragastric pressure [2] is 10 mg/kg.
Regarding `COc1cc(N)c(Cl)cc1C(=O)NN1CCN(Cc2ccc(Cl)cc2)CC1` [Example 7, 4-Amino-5-chloro-2-methoxy-N-{[4-(4-chlorobenzyl)]1-piperazinyl}benzamide], the “Inhibition … active dose” value in test [1] is 50 mg.
As to `COc1cc(N)c(Cl)cc1C(=O)NN1CCN(C)CC1` [Example 4, 4-amino-5-chloro-2-methoxy-N-[4-methyl-1-piperazinyl]benzamide], the “Increase in Intra-gastric Pressure, active dose” value in the test on intragastric pressure [5] came out at 10 mg/kg.
Turning to `COc1cc(N)c(Cl)cc1C(=O)NN1CCN(Cc2ccsc2)CC1` [Example 12, 4-Amino-5-chloro-2-methoxy-N-[4-(3-thenyl)-1-piperazinyl]-benzamide], in test [1], the “Inhibition … active dose” value is 50 mg.

(Values after patent publication US4267175A, “Benzamide derivatives” (Beecham Group Limited, priority 1976, dated 1981).)
